Values quoted from earlier work in US20150064117A1, “NOVEL POLYMORPHS OF REBAUDIOSIDE C AND METHODS FOR MAKING AND USING THE SAME” (Redpoint Bio Corporation, priority 2009, published 2015).
Like-named read-outs stand apart in the source and are kept apart here.

Key:
[1] = relative to sucrose

Row | Compound | effect in mixture (presence and degree of synergism) (mixture with fructose, intensity equivalent to 3% (w/v-%) sucrose) | effect in mixture (presence and degree of synergism) (mixture with fructose, intensity equivalent to 5% (w/v-%) sucrose) | effect in mixture (presence and degree of synergism) (mixture with fructose, intensity equivalent to 7% (w/v-%) sucrose) | effect in mixture (presence and degree of synergism) (mixture with glucose, intensity equivalent to 3% (w/v-%) sucrose) | effect in mixture (presence and degree of synergism) (mixture with glucose, intensity equivalent to 5% (w/v-%) sucrose) | effect in mixture (presence and degree of synergism) (mixture with glucose, intensity equivalent to 7% (w/v-%) sucrose) | effect in mixture (presence and degree of synergism) (mixture with sucrose, intensity equivalent to 3% (w/v-%) sucrose) | effect in mixture (presence and degree of synergism) (mixture with sucrose, intensity equivalent to 5% (w/v-%) sucrose) | effect in mixture (presence and degree of synergism) (mixture with sucrose, intensity equivalent to 7% (w/v-%) sucrose) | times sweeter than sucrose [1] [times]
1 | C=C1C[C@@]23CC[C@H]4[C@@](C)(CCC[C@@]4(C)C(=O)O[C@@H]4O[C@H](CO)[C@@H](O)[C@H](O)[C@H]4O)[C@@H]2CC[C@]1(O[C@@H]1O[C@H](CO)[C@@H](O)[C@H](O[C@@H]2O[C@H](CO)[C@@H](O)[C@H](O)[C@H]2O)[C@H]1O[C@@H]1O[C@H](CO)[C@@H](O)[C@H](O)[C@H]1O)C3 [rebaudioside A] | additive | additive | suppressive | additive | additive | suppressive | synergistic | additive | additive | –
2 | C=C1C[C@@]23CC[C@H]4[C@@](C)(CCC[C@@]4(C)C(=O)O[C@@H]4O[C@H](CO)[C@@H](O)[C@H](O)[C@H]4O)[C@@H]2CC[C@]1(O[C@@H]1O[C@H](CO)[C@@H](O)[C@H](O)[C@H]1O[C@@H]1O[C@@H](C)[C@H](O)[C@@H](O)[C@H]1O)C3 [dulcoside A] | – | – | – | – | – | – | – | – | – | 30
3 | Rebaudioside C | – | – | – | – | – | – | – | – | – | ≥ 40
